Laboratory results reported in patent publication US20040228905A1, “Anti-inflammatory and antimicrobial uses for bioactive glass compositions” (priority 1996, published 2004).

System: S. sanguis
Experiment: Anti-bacterial activity of bioactive glass supernates, survivors enumerated by viable counting
Assay type: cell-based
Details: non-bioactive glass derived alkaline solution, pH 9.8
Description: Nutrient broth (10 ml) was added to 5 grams of particulate bioactive glass with a pore size between 355 and 500 μm, 5 grams of glass beads (not bioactive glass) with a particle size between 455 and 600 μm, and no glass beads. The resulting solutions were incubated with rotation for 1 h at 37 C. 950 μl of each supernatant was removed and added to 50 μl of an overnight culture of S. sanguis, and incubated for 1 h at 37 C. Survivors were enumerated by viable counting.

Structure (SMILES): [Na+].[OH-] [NaOH]
- kills: 40%
